Experiments:
NK1 receptor = NK1 receptor (Meriones unguiculatus (Mongolian jird) (Gerbillus unguiculatus), UniProt Q5DUB1); test: Effect on GR73632-induced foot-tapping; format: in vivo; settings: male gerbil, 0.1 mg/kg iv, GR73632 icv after four hours
Method: The test compound solution was prepared by dissolving the test compound in a vehicle (a mixture of 50% N,N-dimethylacetamide (Wako Pure Chemical Industries), 30% propylene glycol (Wako Pure Chemical Industries), 4% 2-hydroxypropyl-[…] (Wako Pure Chemical Industries) and 16% distilled water).
A male gerbil (Japan SLC) was anesthetized with isoflurane, and 0.1 mg/kg of a test compound was administered from the jugular vein. After four hours, GR73632 (5 pmol/5 μl saline), which is an NK1 receptor agonist, was administered into the cerebral ventricle at the part 1 mm lateral to and 4.5 mm below the bregma in the head, under anesthesia with isoflurane. After the administration, the gerbil was moved to an observation cage, and the foot-tapping period during 30 minutes after the recovery of the righting reflex was measured. The foot-tapping inhibition rate (%) of each test compound was calculated by the following equation. Foot-tapping inhibition rate (%)={1−(Foot-tapping period when test compound was administered)/(Foot-tapping period when solvent was administered)}×100 (2) Measurement of Drug Concentrations

human NK1 receptor = human NK1 receptor (Homo sapiens (Human), UniProt P25103); test: Affinity for human NK1 receptor (125I-substance P receptor binding test); settings: membrane fraction of human NK1 receptor-expressing 293T cells; read-out: IC50 (concentration required for 50% inhibition of 125I-substance P binding)
Method: Affinity for Human NK1 Receptor
PCR was performed using human adult normal tissue-derived brain cDNA (BioChain) as the template, with the forward primer of SEQ ID NO:1 and the reverse primer of SEQ ID NO:2, using a PCR enzyme, PrimeSTAR Max DNA Polymerase or PrimeSTAR GXL DNA Polymerase (registered trademark, Takara Bio). The amplified product was inserted into a plasmid (pCR-BluntII-TOPO (registered trademark), Life Technologies) using Zero Blunt PCR Cloning Kit (registered trademark, Life Technologies). By a general method, Escherichia coli (One Shot TOP10 competent cells, Life Technologies) was transformed by the plasmid into which the amplified product had been inserted. The Escherichia coli cells were cultured on an LB agar medium containing 50 μg/mL kanamycin for a day. After the culture, a colony was selected and cultured in an LB medium containing 50 μg/mL of kanamycin. After the culture, the plasmid was purified using Quantum Prep Plasmid Miniprep Kit (Bio-Rad). The plasmid was double digested for about two hours using restriction enzymes, XhoI and HindIII (New England Biolabs). Then, electrophoresis using 1% agarose gel was performed, and the fragment that was cleaved was collected and purified using TaKaRa RICOCHIP (Takara Bio). […]

Chain of NK1 receptor (Q5DUB1 whole entry): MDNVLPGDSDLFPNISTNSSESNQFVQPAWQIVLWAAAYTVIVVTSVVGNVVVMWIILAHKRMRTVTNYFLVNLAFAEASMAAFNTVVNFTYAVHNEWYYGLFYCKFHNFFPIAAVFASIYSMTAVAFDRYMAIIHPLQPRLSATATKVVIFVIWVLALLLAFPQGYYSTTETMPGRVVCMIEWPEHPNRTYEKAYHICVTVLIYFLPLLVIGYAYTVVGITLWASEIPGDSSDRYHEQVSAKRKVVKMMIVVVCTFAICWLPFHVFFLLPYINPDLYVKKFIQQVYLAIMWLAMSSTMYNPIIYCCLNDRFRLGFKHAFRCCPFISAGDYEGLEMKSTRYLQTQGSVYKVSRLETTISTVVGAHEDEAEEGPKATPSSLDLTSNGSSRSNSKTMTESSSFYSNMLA
Chain of human NK1 receptor (P25103 whole entry): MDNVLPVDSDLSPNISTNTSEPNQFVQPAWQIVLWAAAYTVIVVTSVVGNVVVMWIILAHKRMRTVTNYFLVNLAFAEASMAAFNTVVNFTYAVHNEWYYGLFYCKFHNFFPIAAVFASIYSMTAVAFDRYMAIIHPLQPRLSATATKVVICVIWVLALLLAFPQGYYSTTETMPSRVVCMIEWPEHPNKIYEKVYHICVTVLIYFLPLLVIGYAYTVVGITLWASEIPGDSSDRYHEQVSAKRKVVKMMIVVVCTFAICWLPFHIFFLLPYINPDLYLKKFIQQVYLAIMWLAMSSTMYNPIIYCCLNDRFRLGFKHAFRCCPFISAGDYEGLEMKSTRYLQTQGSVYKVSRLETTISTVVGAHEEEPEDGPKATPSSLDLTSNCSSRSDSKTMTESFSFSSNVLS

Inhibition (foot-tapping inhibition rate) (NK1 receptor): 100% | IC50 (human NK1 receptor): 1.78 nM
SMILES: Cc1cc(F)ccc1-c1cc(C2CCC(CCC(=O)O)CC2)ncc1N(C)C(=O)C(C)(C)c1cc(C(F)(F)F)cc(C(F)(F)F)c1 (centres unmarked) [Example 2, 3-{4-[5-{[2-(3,5-Bistrifluoromethylphenyl)-2-methylpropionyl]methylamino}-4-(4-fluoro-2-methylphenyl)pyridin-2-yl]cyclohexyl}propionic acid]

— patent US9708266B2, “Cyclohexyl pyridine derivative” (priority 2014, dated 2017)
